Results published in patent EP1675557B1, “COMPOSITION COMPRISING A SESQUITERPENE LACTONE” (Greenpharma, priority 2003, dated 2005).

How the values were obtained:
cellules de type Jurkat = assay: Apoptosis test on Jurkat cells, apoptosis induced by sodium arsenate, quantified by flow cytometry (propidium iodide); format: cell-based, humaine; conditions: apoptosis induced by 5 µM arséniate de sodium
Procedure: Les tests apoptotiques ont été réalisés sur des cellules de type Jurkat. La lignée cellulaire Jurkat (Clone E6-1, ATCC TIB 152), dérivée de cellule T humaine de leucémie aiguë, a été décrite dans la littérature (Weiss A. et al, Journal of Immunology, 1984, 133, 123). Les cellules ont été incubées dans un milieu de culture en présence 1 µL d'arséniate de sodium. La concentration finale en arséniate de sodium dans le milieu de culture est de 5 µM. Afin de tester l'inhibition de l'apoptose induite par l'arséniate de sodium, les cellules ont été cultivées soit en absence (témoin) soit en présence de vulgarine 2,6 µM ou d'un de ses dérivés.
L'apoptose a été quantifiée par cytometrie en flux. Les cellules sont rendues perméables et leurs noyaux sont teintés avec de l'iodure de propidium en présence de ribonucléase. Un minimum de 3000 cellules ont été analysées afin de quantifier l'apoptose cellulaire (Hotz M.A. et al, Cytometry, 1994, 15, 237).

in vitro = conditions: human, pbmcs or whole blood
Procedure: (§1) Les tests ont été réalisés sur des PBMCs (lymphocytes et monocytes) ou du sang total de donneurs sains humains. Tous les prélèvements ont été réalisés au Service d'Hépato-Gastroentérologie et d'Assistance Nutritive des Hôpitaux Universitaires de Strasbourg (Hôpital de Hautepierre), après approbation du protocole d'étude concernant les effets du célastrol par le CCPPRB n°1 d'Alsace.
(§2) Chez des volontaires sains, 20 ml de sang veineux périphérique sont prélevés le matin à jeun sur héparine. Le sang est ensuite dilué au demi dans de la solution saline équilibrée de Hank's dépourvue en Ca^2+ et en Mg^2+ (HBSS-CMF, Gibco BRL, Cergy, France) additionnée de 100 UI/ml de streptomycine (Biochrom KG, Berlin, Allemagne) et de 100 UI/ml de pénicilline (Biochrom KG). Les PBMCs (lymphocytes et monocytes) sont alors séparées par centrifugation sur Ficoll-Histopaque de densité 1,076 (Sigma, L'Isle d'Abeau-Chesnes, France) (30 min à 400 g) puis, après deux lavages dans du HBSS-CMF additionné d'antibiotiques (10 min à 250 g), resuspendues dans du milieu RPMI 1640 (Gibco BRL) additionné de 10 % (volume/volume) de sérum foetal de veau (SFV) inactivé à la chaleur (56°C, 30 min, Gibco BRL) et d'antibiotiques. Après comptage à la cellule de Malassez, les cellules sont incubées à raison de 2 x 10^5 cellules/puits de 1 ml dans des plaques de 24 puits (Corning Inc., New York, USA) à 37°C dans un incubateur humidifié (air 95 % - CO2 5 %), en présence ou en absence des molécules étudiées préparées dans du DMSO (diméthyl sulfoxyde, Sigma ; maximum : 1 % (v/v) par puit), avec ou sans activation par du lipopolysaccharide de Salmonella abortus equi (LPS, 5 µg/ml) (Sigma) et de la phytohémagglutinine (PHA, 1 µg/ml) (Sigma) ajoutés à T0. Après 24 heures d'incubation, les plaques sont centrifugées (15 min à 200 g), et les surnageants prélevés puis congelés à -80°C jusqu'au dosage.
(§3) La technique est basée sur le clivage par la déshydrogénase mitochondriale d'un sel de tétrazolium de couleur jaune en formazan de couleur orange. Les culots cellulaires (PBMCs et sang total) contenus dans les plaques de culture sont resuspendus dans du RPMI 1640 additionné d'hydroxide 2,3-bis-(2-méthoxy-4-nitro-5-sulfophényl)-5-[(phénylamino)carbonyl]-2H-tétrazolium (XTT, 1 mg/ml, Sigma), et de méthosulfate de phénazine (1,25 mM, Sigma), catalyseur de la réaction. Les plaques sont incubées 4 à 24 heures, puis lues en absorbance à 450 nm (filtre de référence : 620 nm). La viabilité cellulaire est estimée par rapport au témoin de cellules activées.

[1] = system: PBMCs (lymphocytes et monocytes) ou du sang total; assay: Cell viability test (XTT, mitochondrial dehydrogenase); conditions: relative to control of activated cells
Procedure: as §1, §2, §3

Compound	inhibition at 2.6 µM (cellules de type Jurkat; Homo sapiens, 2,6 µM, read-out: pourcentage d'inhibition de l'apoptose) [%]	viability at 0.01 µM (in vitro) [%]	viability at 0.1 µM (in vitro) [%]	viability at 1 µM (in vitro) [%]	viability at 10 µM (in vitro) [%]	viability at 30 µM (in vitro) [%]	pourcentage d'inhibition de l'apoptose (cellules de type Jurkat; 2,6 µM) [%]	Pourcentage de viabilité cellulaire ([1]; Concentration 0,01 µM, 0.01 µM) [%]	Pourcentage de viabilité cellulaire ([1]; Concentration 0,1 µM, 0.1 µM) [%]	Pourcentage de viabilité cellulaire ([1]; Concentration 1 µM) [%]	Pourcentage de viabilité cellulaire ([1]; Concentration 10 µM) [%]	Pourcentage de viabilité cellulaire ([1]; Concentration 30 µM) [%]
CC1C(=O)OC2C1CCC1(C)C(=O)C=CC(C)(O)C21 (centres unmarked) [Vulgarine, vulgarine]	~100	112	102	119	104	102	–	–	–	–	–	–
CC1C(=O)OC2C1CCC1(C)C(=O)CCC(C)(O)C21 (centres unmarked) [2,3-dihydrovulgarine]	–	110	104	105	108	105	–	–	–	–	–	–
4-épivulgarine	–	–	–	–	–	–	~100	105	103	99	103	100
